ChEMBL document CHEMBL1201862, “PubChem BioAssay data set” (2004)
Values joined by “and” are separate entries in the source; they are usually repeats but may differ in a detail not shown here. Equal values may be shown once.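 Five compound concentrations were applied to cells in 96-well plates for 48 hours; endpoints were derived by simple linear interpolation of the resulting dose-response curve. GI50 marks 50% less growth.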 Active and inactive are the calls of the source. Cut-off read from the data, not from the text of the source: active = GI50 up to about 1.1 µM and inactive = higher.

What was measured:
Test in all cases: inhibition of tumour cell growth, NCI panel, 48 h
[1] = test system: 786-0
[2] = test system: A549
[3] = test system: BT-549
[4] = test system: CAKI-1
[5] = test system: DU-145
[6] = test system: HCC 2998
[7] = test system: HCT-15
[8] = test system: M14
[9] = test system: MDA-MB-435
[10] = test system: MDA-N
[11] = test system: Malme-3M
[12] = test system: NCI-H23
[13] = test system: NCI-H460
[14] = test system: NCI-H522
[15] = test system: PC-3
[16] = test system: RXF 393
[17] = test system: SF-295
[18] = test system: SK-MEL-5
[19] = test system: SR
[20] = test system: SW-620

SMILES | GI50 [1] | GI50 [2] | GI50 [3] | GI50 [4] | GI50 [5] | GI50 [6] | GI50 [7] [µM] | GI50 [8] | GI50 [9] | GI50 [10] | GI50 [11] | GI50 [12] | GI50 [13] | GI50 [14] | GI50 [15] | GI50 [16] | GI50 [17] | GI50 [18] | GI50 [19] | GI50 [20]
C=C(CCCCCCCCC)CC(=O)SCCNC(=O)CCNC(=O)C(O)C(C)(C)COP(=O)(O)OP(=O)(O)OCC1OC(n2cnc3c(N)ncnc32)C(O)C1OP(=O)(O)O (configuration not stated) | 69.5 µM (inactive) | > 92.5 µM (inactive) | > 60.8 µM (inactive) | > 100 µM (inactive) | > 100 µM (inactive) | 52.8 µM (inactive) | 50.1 | 25.5 µM (inactive) | 26.6 µM (inactive) | 32.1 µM (inactive) | > 100 µM (inactive) | > 100 µM (inactive) | 35.4 µM (inactive) | 11.8 µM (inactive) | 56.4 µM (inactive) | > 71.1 µM (inactive) | 57.4 µM (inactive) | 31.6 µM (inactive) | 36.4 µM (inactive) | > 100 µM (inactive)
Cc1cn(C2CC(N(O)Cc3ccccc3)C(CO[Si](C)(C)C(C)(C)C)O2)c(=O)[nH]c1=O (configuration not stated) | 17.4 µM (inactive) and 15.6 µM (inactive) | – | 16.4 µM (inactive) and 16.3 µM (inactive) | 17 µM (inactive) and 26.5 µM (inactive) | 17.8 µM (inactive) and 25.4 µM (inactive) | 19.8 µM (inactive) and 16.7 µM (inactive) | 37.2 | 16.6 µM (inactive) and 19.5 µM (inactive) | 17.9 µM (inactive) and 18 µM (inactive) | 18.9 µM (inactive) and 17.4 µM (inactive) | 17.9 µM (inactive) | 26.6 µM (inactive) and 16.7 µM (inactive) | 17.9 µM (inactive) and 17.7 µM (inactive) | 18 µM (inactive) | 14.5 µM (inactive) and 22.6 µM (inactive) | 13.6 µM (inactive) | 17.2 µM (inactive) and 18.8 µM (inactive) | 16.6 µM (inactive) and 18.8 µM (inactive) | 31.6 µM (inactive) | 19.4 µM (inactive) and 25.8 µM (inactive)
COc1cc2c(c3c1c(=O)c1ccccc1n3C)C=CC1(CCCC1)O2 | 6.56 µM (inactive) | 19.7 µM (inactive) | 10.1 µM (inactive) | 2.54 µM (inactive) | 17.6 µM (inactive) | 21.8 µM (inactive) | 14.1 | 13.3 µM (inactive) | 16.4 µM (inactive) | 15.3 µM (inactive) | 16.4 µM (inactive) | 12.9 µM (inactive) | 10.2 µM (inactive) | 16.3 µM (inactive) | > 10 µM (inactive) | 5.61 µM (inactive) | 3.63 µM (inactive) | 12.9 µM (inactive) | 7.94 µM (inactive) | 20.4 µM (inactive)
NCCCN1CCN(CC(=O)O)CCN(CCCN)CCN(CC(=O)O)CC1 | 6.93 µM (inactive) | 5.52 µM (inactive) | > 100 µM (inactive) | > 100 µM (inactive) | > 100 µM (inactive) | 19.5 µM (inactive) | 43.8 | 82.6 µM (inactive) | > 100 µM (inactive) | > 35.9 µM (inactive) | 25.5 µM (inactive) | > 100 µM (inactive) | 6.75 µM (inactive) | 24.7 µM (inactive) | > 45.1 µM (inactive) | > 47.9 µM (inactive) | > 93.3 µM (inactive) | 4.5 µM (inactive) | > 26.9 µM (inactive) | 9.91 µM (inactive)
OCCCN(CCc1ccc(Cl)c(Cl)c1)CCN1CCCC1 | 24 µM (inactive) | 58.2 µM (inactive) | 40.2 µM (inactive) | > 100 µM (inactive) | > 100 µM (inactive) | 18 µM (inactive) | 39.5 | 17.4 µM (inactive) | 22.3 µM (inactive) | 17.3 µM (inactive) | 23.9 µM (inactive) | 69.8 µM (inactive) | 51.2 µM (inactive) | 30.3 µM (inactive) | 48.9 µM (inactive) | 64.4 µM (inactive) | 34 µM (inactive) | – | 31.8 µM (inactive) | 81.5 µM (inactive)
O=[N+]([O-])c1ccc(/C(=C\c2ccccc2)Cn2ccnc2)cc1 | 34.3 µM (inactive) | 39.3 µM (inactive) | 25.6 µM (inactive) | 3.77 µM (inactive) | 60 µM (inactive) | 68.7 µM (inactive) | 30.2 | 36.9 µM (inactive) | 34.4 µM (inactive) | 25.4 µM (inactive) | 85.5 µM (inactive) | 26.5 µM (inactive) | 32 µM (inactive) | 20 µM (inactive) | 24.8 µM (inactive) | 31.6 µM (inactive) | 32.7 µM (inactive) | 29.9 µM (inactive) | 38.1 µM (inactive) | 44.7 µM (inactive)
COc1ccc([C@]23CCN(S(=O)(=O)c4ccc(C)cc4)[C@H]2[C@H](CO)C2(CC3)OCC(C)(C)CO2)cc1OC | > 100 µM (inactive) | > 100 µM (inactive) | > 100 µM (inactive) | > 100 µM (inactive) | > 100 µM (inactive) | > 100 µM (inactive) | > 100 | > 100 µM (inactive) | > 100 µM (inactive) | > 100 µM (inactive) | > 100 µM (inactive) | > 100 µM (inactive) | > 100 µM (inactive) | > 100 µM (inactive) | > 100 µM (inactive) | 98.6 µM (inactive) | > 100 µM (inactive) | > 100 µM (inactive) | > 100 µM (inactive) | > 100 µM (inactive)
COc1cc2c(c(O)c1OC)-c1c(cc(OC)c(OC)c1OC)CC(C)C(C)C2 (configuration not stated) [GOMISIN K3] | 37.7 µM (inactive) | 43.7 µM (inactive) | 40.8 µM (inactive) | 42.8 µM (inactive) | 45.8 µM (inactive) | 42.3 µM (inactive) | 33 | 45.1 µM (inactive) | 50 µM (inactive) | 73.3 µM (inactive) | 68.7 µM (inactive) | 49 µM (inactive) | 31.2 µM (inactive) | 44.6 µM (inactive) | 28.6 µM (inactive) | 30.9 µM (inactive) | 33.9 µM (inactive) | 35.6 µM (inactive) | 31.3 µM (inactive) | 70.3 µM (inactive)
Cc1noc2nnn(-c3ccc(Cl)cc3)c(=O)c12 | 2.45 µM (inactive) | 12.1 µM (inactive) | 3.16 µM (inactive) | 2.05 µM (inactive) | 3.72 µM (inactive) | 2.15 µM (inactive) | 2.31 | 11.8 µM (inactive) | 2.95 µM (inactive) | 6.01 µM (inactive) | 11.9 µM (inactive) | 4.75 µM (inactive) | 6.43 µM (inactive) | 0.5 µM (active) | 3.71 µM (inactive) | 0.879 µM (active) | 12.3 µM (inactive) | 3.82 µM (inactive) | 1.21 µM (inactive) | 0.67 µM (active)
O=C1Nc2ccccc2/C1=N/NC(=S)N1CCCC1 | 0.647 µM (active) | 0.736 µM (active) | 2.54 µM (inactive) | 2.15 µM (inactive) | 17.1 µM (inactive) | 0.586 µM (active) | 0.281 | 1.56 µM (inactive) | 3.64 µM (inactive) | 3.4 µM (inactive) | 0.889 µM (active) | 3.01 µM (inactive) | 0.499 µM (active) | 2.12 µM (inactive) | 0.507 µM (active) | 0.358 µM (active) | 0.662 µM (active) | 0.585 µM (active) | 0.291 µM (active) | 0.766 µM (active)
CC(C)=CCC[C@@H](C)C1=C(N)C(=O)C(C)=C(O)C1=O | 43.7 µM (inactive) | 32.6 µM (inactive) | > 75 µM (inactive) | 35.2 µM (inactive) | > 75 µM (inactive) | > 75 µM (inactive) | 23.3 | 38.7 µM (inactive) | 44.8 µM (inactive) | 51.3 µM (inactive) | 56.9 µM (inactive) | 42.7 µM (inactive) | 33.7 µM (inactive) | 25.8 µM (inactive) | 54.3 µM (inactive) | > 75 µM (inactive) | 32.1 µM (inactive) | 24.8 µM (inactive) | 26.3 µM (inactive) | 41.3 µM (inactive)
O=c1[nH]nc(Cc2ccccc2)[nH]1 | > 100 µM (inactive) | > 100 µM (inactive) | > 100 µM (inactive) | > 100 µM (inactive) | > 100 µM (inactive) | > 100 µM (inactive) | > 100 | > 100 µM (inactive) | > 100 µM (inactive) | > 100 µM (inactive) | > 100 µM (inactive) | > 100 µM (inactive) | > 100 µM (inactive) | > 100 µM (inactive) | > 100 µM (inactive) | > 100 µM (inactive) | > 100 µM (inactive) | > 100 µM (inactive) | 44.6 µM (inactive) | > 100 µM (inactive)
COc1ccc(N2C=Nn3c(nc4sc(C)c(C)c4c3=O)C2)cc1 | 38.3 µM (inactive) | > 100 µM (inactive) | > 100 µM (inactive) | > 100 µM (inactive) | > 100 µM (inactive) | > 100 µM (inactive) | > 100 | > 100 µM (inactive) | > 100 µM (inactive) | > 100 µM (inactive) | > 100 µM (inactive) | > 100 µM (inactive) | > 100 µM (inactive) | > 100 µM (inactive) | > 100 µM (inactive) | 53.3 µM (inactive) | > 100 µM (inactive) | > 100 µM (inactive) | > 100 µM (inactive) | > 100 µM (inactive)
NNC1=Nc2ccc(Cl)cc2C(=S)N2CSCC12 (configuration not stated) | > 100 µM (inactive) | > 100 µM (inactive) | > 100 µM (inactive) | > 100 µM (inactive) | > 100 µM (inactive) | > 100 µM (inactive) | > 100 | > 100 µM (inactive) | > 100 µM (inactive) | > 100 µM (inactive) | > 100 µM (inactive) | – | > 100 µM (inactive) | > 100 µM (inactive) | > 100 µM (inactive) | > 100 µM (inactive) | > 100 µM (inactive) | > 100 µM (inactive) | > 100 µM (inactive) | > 100 µM (inactive)
